Patent US20080234226A1, “Use Of Iron(III) Complex Compounds For The Preparation Of A Medicament For Oral Treatment Of Iron Deficiency States In Patients With Chronic Inflammatory Bowel Disease” (VIFOR (INTERNATIONAL) AG, priority 2005, published 2008)
Read-outs that look alike come from different tables or passages of the source. Marks after values point to notes of the source that are not given here.

Experiments:
[1] = system: patients with chronic inflammatory bowel disease; test: Markers of oxidative stress (plasma, urine) before and after 14 days oral iron therapy; settings: in vivo
Description: (§1) Analysis of the blood, urine and stool and the clinical evaluation of the disease were carried out on day 1 and 15.
(§2) The tablets were taken in accordance with the manufacturer's recommendations. Patient compliance was defined as the consumption of the tablets handed out, 80% being regarded as satisfactory.
(§3) Blood samples were taken, after fasting during the night, on the morning of day 1 and day 15.
Urine samples were collected on the morning of day 1 and day 15 and analysed for creatinine. Butyl-hydroxy-toluene (BHT) was added to 2 ml urine to a final concentration of 20 mM. The samples were then stored at −80° C. until analysed for urine 8-isoprostaglandin F2α (8-iso-PGF2α).
The values were analysed using the Wilcoxon test for pair differences, and the median and range are stated. The comparison of ratios was evaluated with the Fisher Exact test. P values of less than 0.05 are considered to be statistically significant. The data were analysed using the GraphPad Prism 4 for Windows statistics software package (GraphPad Software, Inc., San Diego, USA).

[2] = system: patients with chronic inflammatory bowel disease; settings: for B-erythrocyte count / B-haematocrit / B-reticulocyte count / Hypochromic red cells (HYPO) / MCH / MCHC / MCV / Reticulocyte haemoglobin (CHr) / B-haemoglobin / S-ferritin / S-iron / S-soluble transferrin receptor / S-total iron binding capacity: mean (SEM); for B-haemoglobin: blood; for B-ESR / B-leukocyte count / B-platelet count / S-CRP: in vivo; for S-ferritin / S-iron / S-soluble transferrin receptor / S-total iron binding capacity: serum
Description: as §1, §2, §3
The values were analysed using the Wilcoxon test for pair differences, and the median and range are stated. The comparison of ratios was evaluated with the Fisher Exact test. […] The data were analysed using the GraphPad Prism 4 for Windows statistics software package (GraphPad Software, Inc., San Diego, USA).

[3] = system: patients with chronic inflammatory bowel disease; test: Clinical disease activity, symptoms, compliance and tolerability during oral iron therapy; format: in vivo, human; settings: human, in vivo
Description: The status of the clinical disease was recorded before (day 1) and after (day 15) the iron therapy. The clinical disease activity was evaluated in patients with Crohn's disease with the “Harvey-Bradshaw Simple Index of Crohn's Disease Activity” (Harvey, R F., Bradshaw, J M., Lancet, 1980; 1:514). The Harvey-Bradshaw Simple Index is based on 5 parameters: general well-being, abdominal pain, stool frequency, abdominal mass and extraintestinal complications. The maximum score is 25 and scores of ≧5 indicate active Crohn's disease.
In patients with colitis ulcerosa, the “Simple Clinical Colitis Activity Index” was recorded (Walmsley, R S., Ayres, R C., Pounder, R E., Allan, R N., Gut 1998; 43; 29-32). The Simple Clinical Colitis Activity Index is based on 6 parameters: general well-being, stool frequency during the day and during the night, urgency of defecation, blood in the stool and extraintestinal complications. The maximum score is 20 and values of ≧4 indicate active colitis ulcerosa.
The Harvey-Bradshaw Simple Index and the Simple Clinical Colitis Activity Index are the same in respect of structure and the clinical significance of a given change in the scores. In order to allow the results of patients with Crohn's disease and colitis ulcerosa to be considered together, the activity scores were calculated as the actual score divided by the maximum score.
All the patients completed the particular Crohn's Disease Activity Index (CDAI) diary card (Best, W R., Becktel, J M., Singleton, J W., Kern, F. Jr., Gastroenterology 1976; 70:439-444) in the week before the start of the iron therapy and during the two weeks of iron therapy. The CDAI diary card comprises daily recording of general well-being, abdominal pain and the number of liquid or very soft stools. The total of seven daily records gives a score for each symptom. The higher the score, the more the patient is adversely affected. The medicament was administered during the study for 14 days and the mean for the two weeks is therefore used for the analysis. The patients also documented the occurrence of nausea before and during the iron therapy.
Patients who discontinued treatment with the medicament because of a deterioration in the symptoms were included in the analysis of the clinical disease activity and the symptom scores. Their disease activity scores were increased by two points, and the symptom scores were increased by one point per day.

## iron(III)-polymaltose complex
[1]
  P-beta-carotene: 0.59 (0.13) μmol/l
  P-cysteinyl-glycine: 18.7 (0.9) μmol/l
  P-glutathione: 5.22 (0.30) μmol/l
  P-homocysteine: 6.53 (1.16) μmol/l
  P-malondialdehyde: 275 (21) nmol/l
  P-vitamin A: 1.6 (0.1) μmol/l
  P-vitamin E: 29.3 (1.6) μmol/l
  change in plasma MDA values: did not significantly change
  change in urine iso-PGF2α values: did not significantly change
[1]; po
  P-beta-carotene: 0.57 (0.09) μmol/l
  P-cysteinyl-glycine: 18.5 (1.1) μmol/l
  P-glutathione: 5.43 (0.43) μmol/l
  P-homocysteine: 6.04 (0.94) μmol/l
  P-malondialdehyde: 300 (19) nmol/l
  P-vitamin A: 1.9 (0.3) μmol/l
  P-vitamin E: 28.3 (1.7) μmol/l
[2]; 14 days treatment
  increase of blood haemoglobin: Neither iron(II) sulfate nor iron(III)-polymaltose complex increased the blood haemoglobin
[2]; after 14 days oral treatment
  B-erythrocyte count: 4.7 (0.1) 10^12/l
  B-haematocrit: 40 (1) %
  B-reticulocyte count: 0.075 (0.008)* 10^12/l
  Hypochromic red cells (HYPO): 10.6 (2.8) %
  MCH: 27 (0.7) pg
  MCHC: 31.2 (0.3) g/dl
  MCV: 85 (1.6) fl
  Reticulocyte haemoglobin (CHr): 29.5 (0.7) pg
  B-haemoglobin: 12.5 (0.3) g/dl
  S-ferritin: 13 (2) μg/l
  S-iron: 8.9 (1.5) μmol/l
  S-soluble transferrin receptor: 2.03 (0.21) mg/l
  S-total iron binding capacity: 77 (2) μmol/l
[2]; before treatment
  B-erythrocyte count: 4.7 (0.1) 10^12/l
  B-haematocrit: 39 (1) %
  B-reticulocyte count: 0.059 (0.006) 10^12/l
  Hypochromic red cells (HYPO): 10.3 (3.0) %
  MCH: 27 (0.7) pg
  MCHC: 31.6 (0.3) g/dl
  MCV: 84 (1.8) fl
  Reticulocyte haemoglobin (CHr): 29.1 (0.8) pg
  B-haemoglobin: 12.5 (0.3) g/dl
  S-ferritin: 13 (2) μg/l
  S-iron: 8.8 (0.8) μmol/l
  S-soluble transferrin receptor: 2.08 (0.24) mg/l
  S-total iron binding capacity: 77 (2) μmol/l
[2]
  B-ESR: 22 (3) mm/h
  B-leukocyte count: 6.9 (0.6) 10^9/l
  B-platelet count: 347 (18) 10^9/l
  S-CRP: 12 (3) mg/l
[2]; po
  B-ESR: 20 (3)* mm/h
  B-leukocyte count: 7.0 (0.7) 10^9/l
  B-platelet count: 343 (21) 10^9/l
  S-CRP: 11 (2) mg/l
[2]; mean of differences after vs before 14 days treatment
  increase in blood reticulocyte count: 1.6e+10 L⁻¹
[3]
  Increased nausea reported: 7/20
  change of clinical disease activity indices: Neither the treatment with iron(II) sulfate (p=0.45) nor the treatment with iron(III)-polymaltose complex (p=0.80) substantially changed the clinical disease activity indices
  influence on general wellbeing or abdominal pain score: Neither iron(II) sulfate nor iron(III)-polymaltose complex had an influence
  patients who discontinued the treatment (intolerable bowel movements, abdominal pain and nausea): one patient
  tolerability of the iron therapy: good tolerability
